# How the values were obtained:
# [1] = target: Phosphatidylinositol 4,5-bisphosphate 3-kinase catalytic subunit gamma isoform (Homo sapiens) (UniProt P48736); test: Inhibition of PI3Kgamma (unknown origin) at 10 uM incubated for 60 mins by kinase-glo luminescence assay
# [2] = Cytotoxicity against human COLO205 cells assessed as cell growth inhibition at 10 uM after 48 hrs by SRB assay relative to control; format: functional; settings: COLO 205, 48 h, read-out: GI
# [3] = Cytotoxicity against human OVCAR3 cells assessed as cell growth inhibition at 10 uM after 48 hrs by SRB assay relative to control; format: functional; settings: OVCAR-3, 48 h, read-out: GI
# [4] = Cytotoxicity against human SKOV3 cells assessed as cell growth inhibition at 10 uM after 48 hrs by SRB assay relative to control; format: functional; settings: SK-OV-3, 48 h, read-out: GI
# SR = test: Cytotoxicity against human SR cells assessed as cell growth inhibition at 10 uM after 48 hrs by SRB assay relative to control; format: functional; settings: read-out: GI
# NCI-H322M = test: Cytotoxicity against human NCI-H322M cells assessed as cell growth inhibition at 10 uM after 48 hrs by SRB assay relative to control; format: functional; settings: read-out: GI
# Malme-3M = test: Cytotoxicity against human MALME-3M cells assessed as cell growth inhibition at 10 uM after 48 hrs by SRB assay relative to control; format: functional; settings: read-out: GI
# [5] = Cytotoxicity against human RPMI8226 cells assessed as cell growth inhibition at 10 uM after 48 hrs by SRB assay relative to control; format: functional; settings: RPMI-8226, 48 h, read-out: GI
# NCI-H522 = test: Cytotoxicity against human NCI-H522 cells assessed as cell growth inhibition at 10 uM after 48 hrs by SRB assay relative to control; format: functional; settings: NCI-H522, 48 h, read-out: GI
# [6] = Cytotoxicity against human SNB19 cells assessed as cell growth inhibition at 10 uM after 48 hrs by SRB assay relative to control; format: functional; settings: SNB-19, 48 h, read-out: GI
# [7] = Cytotoxicity against human SF539 cells assessed as cell growth inhibition at 10 uM after 48 hrs by SRB assay relative to control; format: functional; settings: SF-539, 48 h, read-out: GI
# SK-MEL-28 = test: Cytotoxicity against human SK-MEL-28 cells assessed as cell growth inhibition at 10 uM after 48 hrs by SRB assay relative to control; format: functional; settings: SK-MEL-28, 48 h, read-out: GI
# 786-0 = test: Cytotoxicity against human 786-0 cells assessed as cell growth inhibition at 10 uM after 48 hrs by SRB assay relative to control; format: functional; settings: 786-0, 48 h, read-out: GI
# U-251 = test: Cytotoxicity against human U251 cells assessed as cell growth inhibition at 10 uM after 48 hrs by SRB assay relative to control; format: functional; settings: U-251, 48 h, read-out: GI
# NCI-H23 = test: Cytotoxicity against human NCI-H23 cells assessed as cell growth inhibition at 10 uM after 48 hrs by SRB assay relative to control; format: functional; settings: NCI-H23, 48 h, read-out: GI
# MDA-MB-435 = test: Cytotoxicity against human MDA-MB-435 cells assessed as cell growth inhibition at 10 uM after 48 hrs by SRB assay relative to control; format: functional; settings: MDA-MB-435, 48 h, read-out: GI
# [8] = Cytotoxicity against human SW620 cells assessed as cell growth inhibition at 10 uM after 48 hrs by SRB assay relative to control; format: functional; settings: SW-620, 48 h, read-out: GI
# ACHN = test: Cytotoxicity against human ACHN cells assessed as cell growth inhibition at 10 uM after 48 hrs by SRB assay relative to control; format: functional; settings: read-out: GI
# [9] = Cytotoxicity against human SF268 cells assessed as cell growth inhibition at 10 uM after 48 hrs by SRB assay relative to control; format: functional; settings: SF-268, 48 h, read-out: GI
# [10] = Cytotoxicity against human HOP92 cells assessed as cell growth inhibition at 10 uM after 48 hrs by SRB assay relative to control; format: functional; settings: HOP-92, 48 h, read-out: GI
# [11] = Cytotoxicity against human HL-60(TB) cells assessed as cell growth inhibition at 10 uM after 48 hrs by SRB assay relative to control; format: functional; settings: HL-60, 48 h, read-out: GI
# [12] = target: DNA-dependent protein kinase catalytic subunit (Homo sapiens, UniProt P78527); test: Inhibition of human DNA-PK using EPPLSQEAFADLWKK as substrate by HTRF assay
# SN12C = test: Cytotoxicity against human SN12C cells assessed as cell growth inhibition at 10 uM after 48 hrs by SRB assay relative to control; format: functional; settings: read-out: GI
# [13] = Cytotoxicity against human HCC2998 cells assessed as cell growth inhibition at 10 uM after 48 hrs by SRB assay relative to control; format: functional; settings: HCC 2998, 48 h, read-out: GI
# [14] = Cytotoxicity against human MOLT4 cells assessed as cell growth inhibition at 10 uM after 48 hrs by SRB assay relative to control; format: functional; settings: MOLT-4, 48 h, read-out: GI
# [15] = Cytotoxicity against human NCI-ADR-RES cells assessed as cell growth inhibition at 10 uM after 48 hrs by SRB assay relative to control; format: functional; settings: read-out: GI
# [16] = Cytotoxicity against human OVCAR4 cells assessed as cell growth inhibition at 10 uM after 48 hrs by SRB assay relative to control; format: functional; settings: OVCAR-4, 48 h, read-out: GI
# [17] = Cytotoxicity against human OVCAR8 cells assessed as cell growth inhibition at 10 uM after 48 hrs by SRB assay relative to control; format: functional; settings: OVCAR-8, 48 h, read-out: GI
# [18] = Cytotoxicity against human UACC257 cells assessed as cell growth inhibition at 10 uM after 48 hrs by SRB assay relative to control; format: functional; settings: UACC-257, 48 h, read-out: GI
# HT-29 = test: Cytotoxicity against human HT-29 cells assessed as cell growth inhibition at 10 uM after 48 hrs by SRB assay relative to control; format: functional; settings: HT-29, 48 h, read-out: GI
# MDA-MB-468 = test: Cytotoxicity against human MDA-MB-468 cells assessed as cell growth inhibition at 10 uM after 48 hrs by SRB assay relative to control; format: functional; settings: MDA-MB-468, 48 h, read-out: GI
# [19] = Cytotoxicity against human Hs 578T cells assessed as cell growth inhibition at 10 uM after 48 hrs by SRB assay relative to control; format: functional; settings: read-out: GI
# [20] = Cytotoxicity against human BT549 cells assessed as cell growth inhibition at 10 uM after 48 hrs by SRB assay relative to control; format: functional; settings: BT-549, 48 h, read-out: GI
# SK-MEL-5 = test: Cytotoxicity against human SK-MEL-5 cells assessed as cell growth inhibition at 10 uM after 48 hrs by SRB assay relative to control; format: functional; settings: SK-MEL-5, 48 h, read-out: GI
# [21] = Cytotoxicity against human RXF393 cells assessed as cell growth inhibition at 10 uM after 48 hrs by SRB assay relative to control; format: functional; settings: RXF 393, 48 h, read-out: GI
# Chain of Phosphatidylinositol 4,5-bisphosphate 3-kinase catalytic subunit gamma isoform (Homo sapiens) (P48736 whole entry, looked up, canonical isoform): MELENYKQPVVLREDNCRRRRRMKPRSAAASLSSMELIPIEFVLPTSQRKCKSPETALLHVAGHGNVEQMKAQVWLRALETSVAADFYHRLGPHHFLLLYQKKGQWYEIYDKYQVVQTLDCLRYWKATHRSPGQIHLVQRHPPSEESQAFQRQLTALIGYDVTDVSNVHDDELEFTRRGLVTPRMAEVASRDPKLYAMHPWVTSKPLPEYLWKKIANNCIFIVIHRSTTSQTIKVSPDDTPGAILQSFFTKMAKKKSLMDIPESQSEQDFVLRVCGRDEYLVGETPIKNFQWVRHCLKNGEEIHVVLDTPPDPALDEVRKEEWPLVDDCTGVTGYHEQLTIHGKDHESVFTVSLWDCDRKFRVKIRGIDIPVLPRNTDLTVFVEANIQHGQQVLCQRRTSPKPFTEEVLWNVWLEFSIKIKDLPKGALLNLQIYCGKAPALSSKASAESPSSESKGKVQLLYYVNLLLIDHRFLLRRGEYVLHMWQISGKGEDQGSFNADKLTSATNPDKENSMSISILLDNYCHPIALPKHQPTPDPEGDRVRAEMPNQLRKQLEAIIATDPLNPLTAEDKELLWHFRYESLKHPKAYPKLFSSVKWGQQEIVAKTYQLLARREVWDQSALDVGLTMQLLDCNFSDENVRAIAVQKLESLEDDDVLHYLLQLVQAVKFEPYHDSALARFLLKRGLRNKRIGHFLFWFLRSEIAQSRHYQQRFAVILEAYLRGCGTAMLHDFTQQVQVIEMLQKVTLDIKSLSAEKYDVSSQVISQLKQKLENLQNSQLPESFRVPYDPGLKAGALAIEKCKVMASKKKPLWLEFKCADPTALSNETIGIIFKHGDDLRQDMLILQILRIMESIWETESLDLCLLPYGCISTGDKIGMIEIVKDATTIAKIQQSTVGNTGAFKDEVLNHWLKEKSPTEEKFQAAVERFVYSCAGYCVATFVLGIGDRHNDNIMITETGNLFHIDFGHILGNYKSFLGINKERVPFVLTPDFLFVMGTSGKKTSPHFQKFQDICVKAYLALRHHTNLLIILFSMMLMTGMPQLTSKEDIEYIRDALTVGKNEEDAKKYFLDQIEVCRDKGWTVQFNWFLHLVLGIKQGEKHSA
Structure (SMILES),inhibition [1] [%],inhibition of growth at 10 µM [2] [%],inhibition of growth at 10 µM [3] [%],inhibition of growth at 10 µM [4] [%],inhibition of growth at 10 µM (SR) [%],inhibition of growth at 10 µM (NCI-H322M) [%],inhibition of growth at 10 µM (Malme-3M) [%],inhibition of growth at 10 µM [5] [%],inhibition of growth at 10 µM (NCI-H522) [%],inhibition of growth at 10 µM [6] [%],inhibition of growth at 10 µM [7] [%],inhibition of growth at 10 µM (SK-MEL-28) [%],inhibition of growth at 10 µM (786-0) [%],inhibition of growth at 10 µM (U-251) [%],inhibition of growth at 10 µM (NCI-H23) [%],inhibition of growth at 10 µM (MDA-MB-435) [%],inhibition of growth at 10 µM [8] [%],inhibition of growth at 10 µM (ACHN) [%],inhibition of growth at 10 µM [9] [%],inhibition of growth at 10 µM [10] [%],further results
O=c1nc(N2CCOCC2)oc2c(-c3cccc4ccccc34)cccc12,29,-3.19,14.2,10,27.1,9.24,24.8,3.86,18,8.18,15,5.64,25.6,14.2,10.7,-1.44,2.12,18.4,19.4,39.9,inhibition of growth at 10 µM [11]: 6.4%; IC50 [12]: 20.3 µM; inhibition of growth at 10 µM (SN12C): 17.7%; inhibition of growth at 10 µM [13]: -9.26%; inhibition of growth at 10 µM [14]: 6.92%; inhibition of growth at 10 µM [15]: 16.3%; inhibition of growth at 10 µM [16]: 2.95%; inhibition of growth at 10 µM [17]: 14.8%; inhibition of growth at 10 µM [18]: 3.51%; inhibition of growth at 10 µM (HT-29): 10.4%; inhibition of growth at 10 µM (MDA-MB-468): 23.5%; inhibition of growth at 10 µM [19]: 16.2%; inhibition of growth at 10 µM [20]: 14.7%; inhibition of growth at 10 µM (SK-MEL-5): 20.8%; inhibition of growth at 10 µM [21]: 38.9%
O=c1nc(N2CCOCC2)oc2c(-c3cccs3)cccc12,16,1.02,2.61,-0.56,18,9.05,16.1,-0.55,13.8,5.86,1.52,2.22,7.7,4.68,13,-0.12,1.09,2.88,5.21,44.4,inhibition of growth at 10 µM [11]: 3.68%; IC50 [12]: 7.12 µM; inhibition of growth at 10 µM (SN12C): -3.08%; inhibition of growth at 10 µM [13]: -4.81%; inhibition of growth at 10 µM [14]: -0.6%; inhibition of growth at 10 µM [15]: 11%; inhibition of growth at 10 µM [16]: 2.16%; inhibition of growth at 10 µM [17]: 5%; inhibition of growth at 10 µM [18]: 3.74%; inhibition of growth at 10 µM (HT-29): 6.61%; inhibition of growth at 10 µM (MDA-MB-468): 20.3%; inhibition of growth at 10 µM [19]: 7.89%; inhibition of growth at 10 µM [20]: 14.5%; inhibition of growth at 10 µM (SK-MEL-5): 13.3%; inhibition of growth at 10 µM [21]: 9.88%

# Reference: ChEMBL document CHEMBL3763148, “Synthesis, structure elucidation, DNA-PK and PI3K and anti-cancer activity of 8- and 6-aryl-substituted-1-3-benzoxazines” (Eur J Med Chem, 2016)
